Laboratory results from patent EP4729529A1, “PREPARATION OF PEPTIDE INHIBITOR OF INTERLEUKIN-23 RECEPTOR AND USE THEREOF” (Xizang Haisco Pharmaceutical Co., Ltd., priority 2023, dated 2024).
Starred links: 1 amine or outer side, 2 acyl side, 3 side chain; linkers in the order of their positions; H or OH if unused. Positions of bridges follow the written chain, without caps; N, C: chain ends. Non-standard residues stand in square brackets, D forms with d. Residues, ends and D or L forms follow the SMILES beside them. Groups on a side chain read outwards from the residue. Phe(4-OC2H4NH2,2,3-(CH2)3) = NCCOc1ccc(C[C@H](N)C(=O)O)c2c1CCC2; Trp(7-cPr) = N[C@@H](Cc1c[nH]c2c(C3CC3)cccc12)C(=O)O; NH(CH2CH2O)4CH2CO = O=C(COCCOCCOCCOCCN[*:1])[*:2]; Trp(7-Me) = Cc1cccc2c(C[C@H](N)C(=O)O)c[nH]c12; γGlu = O=C(O)[C@H](CCC(=O)[*:2])N[*:1]; 2Nal = N[C@@H](Cc1ccc2ccccc2c1)C(=O)O; X1 = O=C(C(N[*:1])C1(S[*:3])CC1)[*:2]; Thp(SO2) = NC1(C(=O)O)CCS(=O)(=O)CC1; AEF = NCCOc1ccc(C[C@H](N)C(=O)O)cc1; Adipoyl = O=C(CCCCC(=O)[*:2])[*:1]; 3Pal = N[C@@H](Cc1cccnc1)C(=O)O; Pen = CC(C)(S)[C@H](N)C(=O)O; AEEA = NCCOCCOCC(=O)O; Sar = CNCC(=O)O

Each compound was assayed against T1, IL-23α/IL-12β and IL-23R (Homo sapiens, UniProt Q5VWK5) (assay: IL-23α/IL-12β and IL-23R binding assay (TR-FRET/HTRF)). Details: inhibition of the binding of IL-23α/IL-12β to IL-23R, TR-FRET; both proteins 0.3 nM.
T1 construct: purchased ACRO ILR-H82F3 (IL-23R); ILB-H52W5 (IL-23α/IL-12β)
T1 sequence (Q5VWK5 24-353 limits assumed): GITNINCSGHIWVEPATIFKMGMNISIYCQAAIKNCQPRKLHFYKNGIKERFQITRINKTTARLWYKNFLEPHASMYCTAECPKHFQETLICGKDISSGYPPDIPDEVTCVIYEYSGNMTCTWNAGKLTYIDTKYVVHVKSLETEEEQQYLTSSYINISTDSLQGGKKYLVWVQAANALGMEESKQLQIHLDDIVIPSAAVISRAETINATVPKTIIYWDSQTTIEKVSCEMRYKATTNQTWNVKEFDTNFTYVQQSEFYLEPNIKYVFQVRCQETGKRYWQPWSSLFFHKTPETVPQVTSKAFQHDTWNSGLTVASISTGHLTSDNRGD
Method: 1. IL-23α/IL-12β and IL-23R binding assay
Compounds were tested for their inhibition on the binding of IL-23α/IL-12β to IL-23R by the TR-FRET method. Solutions of proteins IL-23α/IL-12β (ACRO, Cat# ILB-H52W5) and IL-23R (ACRO, Cat# ILR-H82F3) were prepared in reaction buffer PPI (PerkinElmer, Cat# 61DB10RDF). The final concentrations of IL-23α/IL-12β and IL-23R in the reaction mixture were both 0.3 nM. Positive reference Guselkumab was 3-fold diluted from an initial concentration of 30 nM, with 10 doses. 0.1 µL of the positive reference diluted in the reaction buffer was delivered to a 384-well plate (Grenier, Cat# 784075) by the acoustic liquid delivery technique (Echo 655), and the plate was centrifuged at 1000 rpm for 1 minute. 2.5 µL of IL-23α/IL-12β solution was transferred into the 384-well reaction plate, and the plate was centrifuged at 1000 rpm for 1 minute, and incubated at 25°C for 60 minutes. 2.5 µL of IL-23R solution was transferred into the 384-well reaction plate, and the plate was centrifuged at 1000 rpm for 1 minute. 5 µL of Streptavidin-Tb cryptate and Anti 6HIS-d2 detection mixture was transferred into the 384-well reaction plate, and the plate was centrifuged at 1000 rpm for 1 minute, and incubated at 25°C for 60 minutes. Finally, the HTRF signal (Ratio 665/620 nm) was read with a BMG high-throughput drug screening multifunctional microplate reader. IC50 values were obtained by nonlinear regression curve fitting using GraphPad Prism software.
`CC(=O)N[C@@H]1C(=O)N[C@@H](Cc2c[nH]cn2)C(=O)N[C@@H]([C@@H](C)O)C(=O)N[C@@H](Cc2c[nH]c3c(C4CC4)cccc23)C(=O)N[C@@H](CCCCNC(=O)COCCOCCNC(=O)COCCOCCNC(=O)CC[C@H](NC(=O)CCCCC(=O)O)C(=O)O)C(=O)N[C@H](C(=O)N[C@@H](Cc2ccc(OCCN)c3c2CCC3)C(=O)N[C@@H](Cc2ccc3ccccc3c2)C(=O)NC2(C(=O)N[C@@H](CCC(=O)O)C(=O)N[C@@H](CC(N)=O)C(=O)N[C@@H](Cc3cccnc3)C(=O)N(C)CC(N)=O)CCS(=O)(=O)CC2)C(C)(C)SSC1(C)C` [Compound 49] (Ac-[Pen]HT[Trp(7-cPr)]K([AEEA-AEEA-γGlu-Adipoyl])[Pen][Phe(4-OC2H4NH2,2,3-(CH2)3)][2Nal][Thp(SO2)]EN[3Pal][Sar]-NH2; disulfide 1-6) gave an IC50 of 0.068 nM. For `CC(=O)NCCCC[C@@H]1NC(=O)[C@H](Cc2c[nH]c3c(C)cccc23)NC(=O)[C@H]([C@@H](C)O)NC(=O)[C@H](Cc2c[nH]cn2)NC(=O)[C@@H](NC(C)=O)CCCC[C@@H](C(=O)N[C@@H](Cc2ccc(OCCN)c3c2CCC3)C(=O)N[C@@H](Cc2ccc3ccccc3c2)C(=O)NC2(C(=O)N[C@@H](CCC(=O)O)C(=O)N[C@@H](CC(N)=O)C(=O)N[C@@H](Cc3cccnc3)C(=O)N(C)CC(N)=O)CCOCC2)NC1=O` [Compound 52], the IC50 was 0.101 nM. Compound `Cc1cccc2c(C[C@@H]3NC(=O)[C@H]([C@@H](C)O)NC(=O)[C@H](Cc4c[nH]cn4)NC(=O)C4NC(=O)COCCOCCOCCOCCNC(=O)CC[C@@H](C(=O)N[C@@H](CC(N)=O)C(=O)N[C@@H](Cc5cccnc5)C(=O)N(C)CC(N)=O)NC(=O)C5(CCS(=O)(=O)CC5)NC(=O)[C@H](Cc5ccc6ccccc6c5)NC(=O)[C@H](Cc5ccc(OCCN)cc5)NC(=O)[C@@H](NC(=O)[C@H](CCC(N)=O)NC3=O)C(C)(C)SSC43CC3)c[nH]c12` [Compound 53] ([NH(CH2CH2O)4CH2CO][X1]HT[Trp(7-Me)]Q[Pen][AEF][2Nal][Thp(SO2)]EN[3Pal][Sar]-NH2; disulfide 2-7; lactam N-11) has an IC50 of 0.065 nM. `CC(=O)NC1C(=O)N[C@@H](Cc2c[nH]cn2)C(=O)N[C@@H]([C@@H](C)O)C(=O)N[C@@H](Cc2c[nH]c3c(C4CC4)cccc23)C(=O)N[C@@H](CCC(N)=O)C(=O)NC(C(=O)N[C@@H](Cc2ccc(OCCN)c3c2CCC3)C(=O)N[C@@H](Cc2ccc3ccccc3c2)C(=O)NC2(C(=O)N[C@@H](CCC(=O)O)C(=O)N[C@@H](CC(N)=O)C(=O)N[C@@H](Cc3cccnc3)C(=O)N(C)CC(N)=O)CCS(=O)(=O)CC2)C2(CC2)SSC12CC2` (some centres unmarked) [Compound 54] (Ac-[X1]HT[Trp(7-cPr)]Q[X1][Phe(4-OC2H4NH2,2,3-(CH2)3)][2Nal][Thp(SO2)]EN[3Pal][Sar]-NH2; disulfide 1-6) showed an IC50 of 0.091 nM. In the case of `CC(=O)NC1C(=O)N[C@@H](Cc2c[nH]cn2)C(=O)N[C@@H]([C@@H](C)O)C(=O)N[C@@H](Cc2c[nH]c3c(C)cccc23)C(=O)N[C@@H](CCC(N)=O)C(=O)NC(C(=O)N[C@@H](Cc2ccc(OCCN)c3c2CCC3)C(=O)N[C@@H](Cc2ccc3ccccc3c2)C(=O)NC2(C(=O)N[C@@H](CCC(=O)O)C(=O)N[C@@H](CC(N)=O)C(=O)N[C@@H](Cc3cccnc3)C(=O)N(C)CC(N)=O)CCS(=O)(=O)CC2)C2(CC2)SSC12CC2` (some centres unmarked) [Compound 55] (Ac-[X1]HT[Trp(7-Me)]Q[X1][Phe(4-OC2H4NH2,2,3-(CH2)3)][2Nal][Thp(SO2)]EN[3Pal][Sar]-NH2; disulfide 1-6), the IC50 is reported as 0.068 nM.
